Source: ChEMBL document CHEMBL5728172, “Pteridine dione monocarboxylate transporter inhibitors” (2020)

Experiment: Biological Activity of Selected Compounds of the Invention: Specific Examples of compounds of the invention, with estimated EC50 values determined using an MTT assay for 4-day viability of Raji (Burkitt's) lymphoma cells, a cell line known to highly express MCT1 and to be sensitive to small molecule MCT inhibitors,4 are shown in Table 3. Assay protocols follow those described in the literature.4 Other assays that are not described here but that are standard in the field, such as an assay for competitive inhibition of transport of radiolabeled lactic acid, an MCT substrate, may also be useful in establishing mechanism of action of these compounds.
Details: 96 h

With `CC(C)Cn1c(=O)n(C)c(=O)c2nc(CCCCCO)c(COc3cccc4ncccc34)nc21` as the molecule, how does the EC50 read?
Its EC50 is less than 50 nM.
